Results: US20240115745A1, “COMPOUNDS COMPRISING A FIBROBLAST ACTIVATION PROTEIN LIGAND AND USE THEREOF” (3B PHARMACEUTICALS GMBH, priority 2021, published 2024)
Like-named read-outs stand apart in the source and are kept apart here. *1 amine or outer side, *2 acyl side, *3 side chain or, on linkers, in order; H or OH if unused. Where a SMILES comes first, the peptide text is derived from it. Bridges are numbered along the chain shown (N, C = ends). [ ]: non-standard residue; d: D form. The star is where a group is joined. ξ: configuration not given here. X4 = O=C(O)CN1CCN(CC(=O)O)CCN(CC(=O)NCCCOCCOCCOCCCN*)CCN(CC(=O)O)CC1; X11 = O=C(O)CN1CCN(CC(=O)O)CCN([C@H](CCC(=O)*)C(=O)O)CC1; DOTA = O=C(O)CN1CCN(CC(=O)O)CCN(CC(=O)*)CCN(CC(=O)O)CC1; X2 = O=C1NC(=O)C([*:3])=C1CC[C@H](N[*:1])C(=O)[*:2]; Maleimide(3,4-diyl) = O=C1NC(=O)C([*:2])=C1[*:1]; X7 = CN1C(=O)C([*:1])=C([*:2])C1=O; ξThr(3R) = C[C@@H](O)C(N)C(=O)O; Suc = O=C(CCC(=O)[*:2])[*:1]; Nle = CCCC[C@H](N)C(=O)O; Hexanoyl = CCCCCC(=O)*; CO = O=C([*:1])[*:2]; ξP = O=C(O)C1CCCN1; NHBu = CCCCN*

Legend:
[1] = target: T1, FAP-expressing human WI-38 fibroblasts (Homo sapiens, UniProt Q12884); test: Competitive FACS binding assay;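 also: flow cytometry read-out of median Cy5 fluorescence on the cells, plotted versus test compound concentration, with IC50 derived by four-parameter logistic curve fitting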
T1 construct: FAP-expressing human WI-38 fibroblasts (ECACC) were cultured in EMEM; host or cells: WI-38 human fibroblasts
T1 sequence (Q12884 whole entry): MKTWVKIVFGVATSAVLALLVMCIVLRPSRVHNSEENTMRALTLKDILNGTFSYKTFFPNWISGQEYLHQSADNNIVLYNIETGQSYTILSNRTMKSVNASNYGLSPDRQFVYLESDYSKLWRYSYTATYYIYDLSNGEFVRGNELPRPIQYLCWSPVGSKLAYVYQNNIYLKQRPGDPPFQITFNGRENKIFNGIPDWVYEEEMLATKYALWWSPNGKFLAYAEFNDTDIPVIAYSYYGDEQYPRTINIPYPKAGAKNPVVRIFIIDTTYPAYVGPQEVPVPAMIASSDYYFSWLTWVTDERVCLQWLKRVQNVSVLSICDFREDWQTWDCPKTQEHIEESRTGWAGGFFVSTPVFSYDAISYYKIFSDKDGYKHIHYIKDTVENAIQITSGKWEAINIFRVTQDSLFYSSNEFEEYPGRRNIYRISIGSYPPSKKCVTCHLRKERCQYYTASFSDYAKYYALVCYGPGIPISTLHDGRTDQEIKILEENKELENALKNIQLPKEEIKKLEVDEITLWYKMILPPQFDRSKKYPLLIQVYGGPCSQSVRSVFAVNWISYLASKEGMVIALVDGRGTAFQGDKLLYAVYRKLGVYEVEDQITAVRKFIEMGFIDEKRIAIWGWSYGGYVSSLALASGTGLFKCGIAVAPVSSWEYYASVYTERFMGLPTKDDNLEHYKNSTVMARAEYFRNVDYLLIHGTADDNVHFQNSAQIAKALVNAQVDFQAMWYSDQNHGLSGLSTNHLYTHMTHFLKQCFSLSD

[2] = target: T2, Recombinant human FAP (Homo sapiens, UniProt Q12884); test: FRET-based FAP protease activity assay; type: biochemical
T2 construct: purchased R&D systems 3715-SE
T2 sequence (Q12884 26-760 limits assumed): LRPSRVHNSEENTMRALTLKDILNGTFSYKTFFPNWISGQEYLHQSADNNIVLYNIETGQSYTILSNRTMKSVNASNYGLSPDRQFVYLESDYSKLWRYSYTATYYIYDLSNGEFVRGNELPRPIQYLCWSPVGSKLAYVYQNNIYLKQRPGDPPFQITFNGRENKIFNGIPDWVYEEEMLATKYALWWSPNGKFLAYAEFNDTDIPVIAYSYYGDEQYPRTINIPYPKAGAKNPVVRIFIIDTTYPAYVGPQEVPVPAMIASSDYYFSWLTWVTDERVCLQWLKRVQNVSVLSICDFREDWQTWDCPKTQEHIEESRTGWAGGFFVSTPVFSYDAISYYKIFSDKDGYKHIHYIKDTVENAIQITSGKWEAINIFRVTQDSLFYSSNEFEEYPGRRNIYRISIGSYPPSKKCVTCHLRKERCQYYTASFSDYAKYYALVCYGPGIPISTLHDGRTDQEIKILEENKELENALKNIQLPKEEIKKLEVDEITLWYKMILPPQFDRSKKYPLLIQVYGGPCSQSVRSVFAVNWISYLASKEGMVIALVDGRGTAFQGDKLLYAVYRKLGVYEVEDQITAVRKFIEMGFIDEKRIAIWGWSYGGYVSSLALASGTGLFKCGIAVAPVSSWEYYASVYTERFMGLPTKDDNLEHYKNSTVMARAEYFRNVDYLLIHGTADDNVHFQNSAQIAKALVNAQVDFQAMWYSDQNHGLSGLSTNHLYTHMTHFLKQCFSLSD

[3] = competition with 3 nM Cy5-labeled compound, WI-38 fibroblasts, 4° C., 1 hour, read-out: pIC50 Category (FACS) (converted)
[4] = recombinant human FAP, FRET-peptide substrate, 37° C., read-out: pIC50 Category (Activity) (converted)

Compound	IC50 [1, 3]	IC50 [2, 4]	IC50 [1]	IC50 [2]
CCCCCC(=O)N[C@H]1CSC2=C(SC[C@@H](C(=O)N[C@@H](CC(=O)O)C(=O)N[C@@H](CCCCNC(=O)CN3CCN(CC(=O)O)CCN(CC(=O)O)CCN(CC(=O)O)CC3)C(N)=O)NC(=O)[C@H](Cc3ccccc3)NC(=O)[C@H](CCC(N)=O)NC(=O)[C@H]([C@@H](C)O)NC(=O)[C@@H]3CCCN3C(=O)C3CCCN3C1=O)C(=O)NC2=O (stereo partly drawn) [Compound 2012, Hex-[Cys(mli)-Pro-Pro-Thr-Gln-Phe-Cys]-Asp-Lys(DOTA)-NH2] (Hexanoyl-C[ξP]PTQFCDK(DOTA)-NH2; linker 1-7 via Maleimide(3,4-diyl))	< 100 nM	< 100 nM		
CCCCNC(=O)N[C@H]1CSC2=C(SC[C@@H](C(=O)N[C@@H](CC(=O)O)C(=O)N[C@@H](CCCCNC(=O)CN3CCN(CC(=O)O)CCN(CC(=O)O)CCN(CC(=O)O)CC3)C(N)=O)NC(=O)[C@H](Cc3ccccc3)NC(=O)[C@H](CCC(N)=O)NC(=O)C([C@@H](C)O)NC(=O)[C@@H]3CCCN3C(=O)[C@@H]3CCCN3C1=O)C(=O)NC2=O (stereo partly drawn) [Compound 2014, Buur-[Cys(mli)-Pro-Pro-Thr-Gln-Phe-Cys]-Asp-Lys(DOTA)-NH2] ({NHBu-CO}-CPP[ξThr(3R)]QFCDK(DOTA)-NH2; linker 1-7 via Maleimide(3,4-diyl))	< 100 nM	< 100 nM		
CCCCNC(=O)N[C@H]1CSC2=C(SC[C@@H](C(=O)N[C@@H](CC(=O)O)C(=O)N[C@@H](CCCCNC(=O)CN3CCN(CC(=O)O)CCN(CC(=O)O)CCN(CC(=O)O)CC3)C(N)=O)NC(=O)[C@H](Cc3ccccc3)NC(=O)[C@H](CCC(N)=O)NC(=O)C([C@@H](C)O)NC(=O)[C@@H]3CCCN3C(=O)[C@@H]3CCCN3C1=O)C(=O)N(C)C2=O (stereo partly drawn) [Compound 2015, Hex-[Cys(mli(Me))-Pro-Pro-Thr-Gln-Phe-Cys]-Asp-Lys(DOTA)-NH2] ({NHBu-CO}-CPP[ξThr(3R)]QFCDK(DOTA)-NH2; linker 1-7 via X7)	< 100 nM	< 100 nM		
CCCC[C@H](NC(=O)CCC(=O)NCCCOCCOCCOCCCNC(=O)CN1CCN(CC(=O)O)CCN(CC(=O)O)CCN(CC(=O)O)CC1)C(=O)N[C@H]1CSC2=C(SC[C@@H](C(=O)N[C@@H](CC(=O)O)C(N)=O)NC(=O)[C@H](Cc3ccccc3)NC(=O)[C@H](CCC(N)=O)NC(=O)[C@H]([C@@H](C)O)NC(=O)[C@@H]3CCCN3C(=O)[C@@H]3CCCN3C1=O)C(=O)N(C)C2=O [Compound 2016, DOTA-Ttds-Nle-[Cys(mli(Me))-Pro-Pro-Thr-Gln-Phe-Cys]-Asp-NH2] ({X4-Suc}-[Nle]CPPTQFCD-NH2; linker 2-8 via X7)	< 100 nM	< 100 nM		
CCCCCC(=O)N[C@H]1CSC2=C(SC[C@@H](C(=O)N[C@@H](CC(=O)O)C(N)=O)NC(=O)[C@H](Cc3ccccc3)NC(=O)[C@H](CCC(N)=O)NC(=O)[C@H]([C@@H](C)O)NC(=O)[C@@H]3CCCN3C(=O)[C@@H]3CCCN3C1=O)C(=O)N(CCCOCCOCCOCCCNC(=O)CN1CCN(CC(=O)O)CCN(CC(=O)O)CCN(CC(=O)O)CC1)C2=O [Compound 2017, Hex-[Cys(mli(DOTA-Ttd))-Pro-Pro-Thr-Gln-Phe-Cys]-Asp-NH2] (HELM PEPTIDE1{[CCCCCC(=O)[*:2]].C.P.P.T.Q.F.C.D.[am]}|CHEM1{[O=C(O)CN1CCN(CC(=O)O)CCN(CC(=O)NCCCOCCOCCOCCCN2C(=O)C([*:1])=C([*:2])C2=O)CCN(CC(=O)O)CC1]}$PEPTIDE1,CHEM1,2:R3-1:R1|PEPTIDE1,CHEM1,8:R3-1:R2$$$V2.0)			< 100 nM	< 100 nM
CCCCCC(=O)N[C@H]1CSC2=C(SC[C@@H](C(=O)N[C@@H](CC(=O)O)C(N)=O)NC(=O)[C@H](Cc3ccccc3)NC(=O)[C@H](CCC(N)=O)NC(=O)[C@H]([C@@H](C)O)NC(=O)[C@@H]3CCCN3C(=O)[C@@H]3CCCN3C1=O)C(=O)N(CCCC(=O)CN1CCN(CC(=O)O)CCN(CC(=O)O)CCN(CC(=O)O)CC1)C2=O [Compound 2018, Hex-[Cys(mli(DOTA-Eda))-Pro-Pro-Thr-Gln-Phe-Cys]-Asp-NH2] (HELM PEPTIDE1{[CCCCCC(=O)[*:2]].C.P.P.T.Q.F.C.D.[am]}|CHEM1{[O=C(O)CN1CCN(CC(=O)O)CCN(CC(=O)CCCN2C(=O)C([*:1])=C([*:2])C2=O)CCN(CC(=O)O)CC1]}$PEPTIDE1,CHEM1,2:R3-1:R1|PEPTIDE1,CHEM1,8:R3-1:R2$$$V2.0)			< 100 nM	< 100 nM
CCCCCC(=O)N[C@H]1CSC2=C(SC[C@@H](C(=O)N[C@@H](CC(=O)O)C(N)=O)NC(=O)[C@H](Cc3ccccc3)NC(=O)[C@H](CCC(=O)O)NC(=O)[C@H]([C@@H](C)O)NC(=O)[C@@H]3CCCN3C(=O)[C@@H]3CCCN3C1=O)C(=O)N(CCCOCCOCCOCCCNC(=O)CN1CCN(CC(=O)O)CCN(CC(=O)O)CCN(CC(=O)O)CC1)C2=O [Compound 2020, Hex-[Cys(mli(DOTA-Ttd))-Pro-Pro-Thr-Glu-Phe-Cys]-Asp-NH2] (HELM PEPTIDE1{[CCCCCC(=O)[*:2]].C.P.P.T.E.F.C.D.[am]}|CHEM1{[O=C(O)CN1CCN(CC(=O)O)CCN(CC(=O)NCCCOCCOCCOCCCN2C(=O)C([*:1])=C([*:2])C2=O)CCN(CC(=O)O)CC1]}$PEPTIDE1,CHEM1,2:R3-1:R1|PEPTIDE1,CHEM1,8:R3-1:R2$$$V2.0)	< 100 nM	< 100 nM		

The next lines start with results.

IC50 [1, 3]	IC50 [2, 4]	Compound	IC50 [1]	IC50 [2]
< 100 nM	< 100 nM	CCCCCC(=O)N[C@H]1CSC2=C(SC[C@@H](C(=O)O)NC(=O)[C@H](Cc3ccccc3)NC(=O)[C@H](CCC(N)=O)NC(=O)[C@H]([C@@H](C)O)NC(=O)[C@@H]3CCCN3C(=O)[C@@H]3CCCN3C1=O)C(=O)N(CCCOCCOCCOCCCNC(=O)CN1CCN(CC(=O)O)CCN(CC(=O)O)CCN(CC(=O)O)CC1)C2=O [Compound 2019, Hex-[Cys(mli(DOTA-Ttd))-Pro-Pro-Thr-Gln-Phe-Cys]-OH]		
< 100 nM	< 100 nM	CCCC[C@H](NC(=O)CCC(=O)NCCCOCCOCCOCCCNC(=O)CC[C@H](C(=O)O)N1CCN(CC(=O)O)CCN(CC(=O)O)CC1)C(=O)N[C@H]1CSC2=C(SC[C@@H](C(=O)NCCC(=O)O)NC(=O)[C@H](Cc3ccccc3)NC(=O)[C@H](CCC(N)=O)NC(=O)[C@H]([C@@H](C)O)NC(=O)[C@@H]3CCCN3C(=O)[C@@H]3CCCN3C1=O)C(=O)NC2=O [Compound 2021, NODAGA-Ttds-Nle-[Cys(mli)-Pro-Pro-Thr-Gln-Phe-Cys]-Bal-OH]		
< 100 nM	< 100 nM	CCCC[C@H](NC(=O)CCC(=O)NCCCOCCOCCOCCCNC(=O)C(CNCCN)CNCCN)C(=O)N[C@H]1CSC2=C(SC[C@@H](C(=O)NCCC(=O)O)NC(=O)[C@H](Cc3ccccc3)NC(=O)[C@H](CCC(N)=O)NC(=O)[C@H]([C@@H](C)O)NC(=O)[C@@H]3CCCN3C(=O)[C@@H]3CCCN3C1=O)C(=O)NC2=O [Compound 2022, N4Ac-Ttds-Nle-[Cys(mli)-Pro-Pro-Thr-Gln-Phe-Cys]-Bal-OH]		
< 100 nM	< 100 nM	CCCCCC(=O)N[C@H]1CSC2=C(CC[C@@H](C(=O)N[C@@H](CC(=O)O)C(=O)N[C@@H](CCCCNC(=O)CC[C@H](C(=O)O)N3CCN(CC(=O)O)CCN(CC(=O)O)CC3)C(N)=O)NC(=O)[C@H](Cc3ccccc3)NC(=O)[C@H](CCC(N)=O)NC(=O)[C@H]([C@@H](C)O)NC(=O)[C@@H]3CCCN3C(=O)[C@@H]3CCCN3C1=O)C(=O)NC2=O [Compound 2023, Hex-[Cys(mli)-Pro-Pro-Thr-Gln-Phe-Cys]-Asp-Lys(NODAGA)-NH2] (Hexanoyl-CPPTQF[X2]DK(X11)-NH2; thioether 1-7)		
